Assay: xn = mol fraction of the nth substance listed
Conditions: Gas, isochoric method

C=CC(F)(F)F [1,1,1-trifluoro-2-propene] + CC(C)C
Conditions | specific volume [m3/kg]
303.15 K, 47.6 kPa, x2 = 0.282 | 0.6134
303.15 K, 169.8 kPa, x2 = 0.898 | 0.2302
308.15 K, 48.4 kPa, x2 = 0.282 | 0.6136
308.15 K, 172.8 kPa, x2 = 0.898 | 0.2303
308.15 K, 192.7 kPa, x2 = 0.434 | 0.1611
308.15 K, 289.5 kPa, x2 = 0.225 | 0.0942
313.15 K, 49.2 kPa, x2 = 0.282 | 0.6137
313.15 K, 175.8 kPa, x2 = 0.898 | 0.2303
313.15 K, 196 kPa, x2 = 0.434 | 0.1611
313.15 K, 294.8 kPa, x2 = 0.225 | 0.0943
318.15 K, 50 kPa, x2 = 0.282 | 0.6139
318.15 K, 178.7 kPa, x2 = 0.898 | 0.2304
318.15 K, 199.4 kPa, x2 = 0.434 | 0.1611
318.15 K, 300.1 kPa, x2 = 0.225 | 0.0943
323.15 K, 50.8 kPa, x2 = 0.282 | 0.614
323.15 K, 181.7 kPa, x2 = 0.898 | 0.2304
323.15 K, 202.4 kPa, x2 = 0.434 | 0.1612
323.15 K, 305.3 kPa, x2 = 0.225 | 0.0943
328.15 K, 51.6 kPa, x2 = 0.282 | 0.6141
328.15 K, 184.7 kPa, x2 = 0.898 | 0.2305
328.15 K, 205.9 kPa, x2 = 0.434 | 0.1612
328.15 K, 310.5 kPa, x2 = 0.225 | 0.0943
333.15 K, 52.4 kPa, x2 = 0.282 | 0.6143
333.15 K, 187.6 kPa, x2 = 0.898 | 0.2305
333.15 K, 209.4 kPa, x2 = 0.434 | 0.1613
333.15 K, 315.8 kPa, x2 = 0.225 | 0.0943
338.15 K, 53.2 kPa, x2 = 0.282 | 0.6144
338.15 K, 190.4 kPa, x2 = 0.898 | 0.2306
338.15 K, 212 kPa, x2 = 0.434 | 0.1613
338.15 K, 320.9 kPa, x2 = 0.225 | 0.0944
343.15 K, 54 kPa, x2 = 0.282 | 0.6145
343.15 K, 193.4 kPa, x2 = 0.898 | 0.2306
343.15 K, 215.5 kPa, x2 = 0.434 | 0.1613
343.15 K, 326.1 kPa, x2 = 0.225 | 0.0944
348.15 K, 54.8 kPa, x2 = 0.282 | 0.6147
348.15 K, 196.3 kPa, x2 = 0.898 | 0.2307
348.15 K, 218.9 kPa, x2 = 0.434 | 0.1614
348.15 K, 331.3 kPa, x2 = 0.225 | 0.0944
353.15 K, 55.6 kPa, x2 = 0.282 | 0.6148
353.15 K, 199.4 kPa, x2 = 0.898 | 0.2307
353.15 K, 222.4 kPa, x2 = 0.434 | 0.1614
353.15 K, 336.5 kPa, x2 = 0.225 | 0.0944
358.15 K, 56.4 kPa, x2 = 0.282 | 0.6149
358.15 K, 202.3 kPa, x2 = 0.898 | 0.2308
358.15 K, 225 kPa, x2 = 0.434 | 0.1614
358.15 K, 341.6 kPa, x2 = 0.225 | 0.0944
363.15 K, 57.2 kPa, x2 = 0.282 | 0.6151
363.15 K, 205.3 kPa, x2 = 0.898 | 0.2308
363.15 K, 228.5 kPa, x2 = 0.434 | 0.1615
363.15 K, 346.8 kPa, x2 = 0.225 | 0.0945
368.15 K, 58.1 kPa, x2 = 0.282 | 0.6152
368.15 K, 208.1 kPa, x2 = 0.898 | 0.2309
368.15 K, 231.9 kPa, x2 = 0.434 | 0.1615
368.15 K, 351.9 kPa, x2 = 0.225 | 0.0945
373.15 K, 58.8 kPa, x2 = 0.282 | 0.6153
373.15 K, 211.1 kPa, x2 = 0.898 | 0.2309
373.15 K, 235.2 kPa, x2 = 0.434 | 0.1615
373.15 K, 357.1 kPa, x2 = 0.225 | 0.0945
378.15 K, 59.7 kPa, x2 = 0.282 | 0.6155
378.15 K, 213.4 kPa, x2 = 0.898 | 0.231
378.15 K, 236.9 kPa, x2 = 0.434 | 0.1616
378.15 K, 362.3 kPa, x2 = 0.225 | 0.0945
383.15 K, 60.5 kPa, x2 = 0.282 | 0.6156
383.15 K, 217.1 kPa, x2 = 0.898 | 0.231
383.15 K, 240.1 kPa, x2 = 0.434 | 0.1616
383.15 K, 367.5 kPa, x2 = 0.225 | 0.0946

F/C=C(\F)C(F)(F)F [(Z)-1,2,3,3,3-pentafluoro-1-propene] + CC(C)C
Conditions | specific volume [m3/kg]
303.15 K, 207 kPa, x2 = 0.504 | 0.1216
308.15 K, 210.7 kPa, x2 = 0.504 | 0.1216
308.15 K, 303.6 kPa, x2 = 0.797 | 0.1074
308.15 K, 309.8 kPa, x2 = 0.345 | 0.0717
308.15 K, 316 kPa, x2 = 0.175 | 0.0632
308.15 K, 394.7 kPa, x2 = 0.916 | 0.0901
308.15 K, 410.6 kPa, x2 = 0.477 | 0.0585
313.15 K, 214.4 kPa, x2 = 0.504 | 0.1216
313.15 K, 309.3 kPa, x2 = 0.797 | 0.1074
313.15 K, 315.5 kPa, x2 = 0.345 | 0.0717
313.15 K, 321.9 kPa, x2 = 0.175 | 0.0632
313.15 K, 402.8 kPa, x2 = 0.916 | 0.0901
313.15 K, 418.8 kPa, x2 = 0.477 | 0.0585
318.15 K, 218 kPa, x2 = 0.504 | 0.1217
318.15 K, 315 kPa, x2 = 0.797 | 0.1074
318.15 K, 321.3 kPa, x2 = 0.345 | 0.0717
318.15 K, 327.8 kPa, x2 = 0.175 | 0.0633
318.15 K, 410.7 kPa, x2 = 0.916 | 0.0901
318.15 K, 426.9 kPa, x2 = 0.477 | 0.0585
323.15 K, 221.7 kPa, x2 = 0.504 | 0.1217
323.15 K, 320.6 kPa, x2 = 0.797 | 0.1074
323.15 K, 327 kPa, x2 = 0.345 | 0.0717
323.15 K, 333.7 kPa, x2 = 0.175 | 0.0633
323.15 K, 418.5 kPa, x2 = 0.916 | 0.0901
323.15 K, 434.9 kPa, x2 = 0.477 | 0.0585
328.15 K, 225.3 kPa, x2 = 0.504 | 0.1217
328.15 K, 326.2 kPa, x2 = 0.797 | 0.1075
328.15 K, 332.9 kPa, x2 = 0.345 | 0.0718
328.15 K, 339.5 kPa, x2 = 0.175 | 0.0633
328.15 K, 426.4 kPa, x2 = 0.916 | 0.0902
328.15 K, 442.8 kPa, x2 = 0.477 | 0.0586
333.15 K, 229 kPa, x2 = 0.504 | 0.1217
333.15 K, 331.8 kPa, x2 = 0.797 | 0.1075
333.15 K, 338.6 kPa, x2 = 0.345 | 0.0718
333.15 K, 346.4 kPa, x2 = 0.175 | 0.0633
333.15 K, 434 kPa, x2 = 0.916 | 0.0902
333.15 K, 450.8 kPa, x2 = 0.477 | 0.0586
338.15 K, 232.6 kPa, x2 = 0.504 | 0.1218
338.15 K, 337.4 kPa, x2 = 0.797 | 0.1075
338.15 K, 344.2 kPa, x2 = 0.345 | 0.0718
338.15 K, 351.2 kPa, x2 = 0.175 | 0.0633
338.15 K, 441.7 kPa, x2 = 0.916 | 0.0902
338.15 K, 458.7 kPa, x2 = 0.477 | 0.0586
343.15 K, 236.3 kPa, x2 = 0.504 | 0.1218
343.15 K, 342.9 kPa, x2 = 0.797 | 0.1075
343.15 K, 349.8 kPa, x2 = 0.345 | 0.0718
343.15 K, 357 kPa, x2 = 0.175 | 0.0633
343.15 K, 449.4 kPa, x2 = 0.916 | 0.0902
343.15 K, 466.6 kPa, x2 = 0.477 | 0.0586
348.15 K, 239.9 kPa, x2 = 0.504 | 0.1218
348.15 K, 348.5 kPa, x2 = 0.797 | 0.1076
348.15 K, 355.4 kPa, x2 = 0.345 | 0.0718
348.15 K, 362.8 kPa, x2 = 0.175 | 0.0633
348.15 K, 457 kPa, x2 = 0.916 | 0.0902
348.15 K, 474.5 kPa, x2 = 0.477 | 0.0586
353.15 K, 243.6 kPa, x2 = 0.504 | 0.1218
353.15 K, 354.1 kPa, x2 = 0.797 | 0.1076
353.15 K, 361 kPa, x2 = 0.345 | 0.0718
353.15 K, 368.6 kPa, x2 = 0.175 | 0.0634
353.15 K, 464.6 kPa, x2 = 0.916 | 0.0903
353.15 K, 482.3 kPa, x2 = 0.477 | 0.0586
358.15 K, 247.3 kPa, x2 = 0.504 | 0.1219
358.15 K, 359.6 kPa, x2 = 0.797 | 0.1076
358.15 K, 366.6 kPa, x2 = 0.345 | 0.0719
358.15 K, 374.3 kPa, x2 = 0.175 | 0.0634
358.15 K, 472.2 kPa, x2 = 0.916 | 0.0903
358.15 K, 490.2 kPa, x2 = 0.477 | 0.0586
363.15 K, 251 kPa, x2 = 0.504 | 0.1219
363.15 K, 365.1 kPa, x2 = 0.797 | 0.1076
363.15 K, 372.2 kPa, x2 = 0.345 | 0.0719
363.15 K, 380.1 kPa, x2 = 0.175 | 0.0634
363.15 K, 479.8 kPa, x2 = 0.916 | 0.0903
363.15 K, 497.9 kPa, x2 = 0.477 | 0.0586
368.15 K, 254.6 kPa, x2 = 0.504 | 0.1219
368.15 K, 370.4 kPa, x2 = 0.797 | 0.1077
368.15 K, 377.8 kPa, x2 = 0.345 | 0.0719
368.15 K, 385.9 kPa, x2 = 0.175 | 0.0634
368.15 K, 487.3 kPa, x2 = 0.916 | 0.0903
368.15 K, 505.7 kPa, x2 = 0.477 | 0.0587
373.15 K, 258.3 kPa, x2 = 0.504 | 0.122
373.15 K, 375.9 kPa, x2 = 0.797 | 0.1077
373.15 K, 383.4 kPa, x2 = 0.345 | 0.0719
373.15 K, 391.6 kPa, x2 = 0.175 | 0.0634
373.15 K, 494.9 kPa, x2 = 0.916 | 0.0903
373.15 K, 513.5 kPa, x2 = 0.477 | 0.0587
378.15 K, 262 kPa, x2 = 0.504 | 0.122
378.15 K, 381.6 kPa, x2 = 0.797 | 0.1077
378.15 K, 389 kPa, x2 = 0.345 | 0.0719
378.15 K, 397.3 kPa, x2 = 0.175 | 0.0634
378.15 K, 502.4 kPa, x2 = 0.916 | 0.0904
378.15 K, 521.3 kPa, x2 = 0.477 | 0.0587
383.15 K, 265.6 kPa, x2 = 0.504 | 0.122
383.15 K, 387 kPa, x2 = 0.797 | 0.1077
383.15 K, 394.6 kPa, x2 = 0.345 | 0.0719
383.15 K, 403.1 kPa, x2 = 0.175 | 0.0634
383.15 K, 509.9 kPa, x2 = 0.916 | 0.0904
383.15 K, 529 kPa, x2 = 0.477 | 0.0587

— the NIST ThermoML archive (doi:10.1021/acs.jced.8b00921)
